According to patent US20160058829A1, “ANTI-FIBROTIC PEPTIDES AND THEIR USE IN METHODS FOR TREATING DISEASES AND DISORDERS CHARACTERIZED BY FIBROSIS” (Thrasos Innovation, Inc., priority 2011, published 2016):
Positions of bridges follow the written chain, without caps; N, C: chain ends.

Legend:
[1] = tested on: human proximal tubule epithelial cells (HK2); test: D-glucose-induced EMT assay, E-cadherin immunofluorescence with colorimetric image analysis; format: cell-based; conditions: D-glucose 50 mM
Method: Chronic hyperglycemia is a known cause of renal fibrosis in type 2 diabetes. The assay in this example induces the transdifferentiation from the epithelial to the mesenchymal phenotype (EMT) in human proximal tubule epithelial cells (HK2) by exposing them to high levels of D-glucose (100 mM and 200 mM). […] Exposure to 100 mM D-glucose results in the loss of E-cadherine expression as evidenced by the loss of the fluorescene signal. Using this assay test compounds are evaluated based on their ability to inhibit the EMT processes in the presence of high levels of D-glucose. FIGS. 4-16 are fluorescence micrographs of HK2 cells exposed to 100 mM D-glucose and 100 uM of SEQ IS NOs 1 through 11, respectively. Note that all but SEQ ID NOs 10 and 11 were able to preserve the epithelial phenotype (i.e., inhibit the EMT).
Results are provided in the context of FIG. 1 and Table 3, below. In Table 3 below, compound response is scored using image analysis as described herein in the method of Methods and Materials, part C. A 0% response corresponds to the signal for 100 mM (or 200 mM) D-glucose (untreated) while the 100% response corresponds to the signal for media in the absence of D-glucose.
It has been shown that transdifferentiation of proximal tubular epithelial cells is a critical step in the development of renal fibrosis, and that this is associated with a loss of the epithelial phenotypic marker, E-cadherin expression. This provides the basis for the development of a cell-based screening assay in which high concentrations of D-Glucose (50-100 mM) are used to induce a loss of E-cadherin expression in human renal proximal tubular epithelial (HK-2) cells, and compounds are tested for their ability to reverse the loss E-cadherin expression.
Materials: • Human proximal tubular epithelial cells, HK-2 (ATCC #CRL-2190) • Serum-free keratinocyte medium (GIBCO #17005-042, K-SFM) • Epidermal growth factor (EGF: 5 ng/mL) • Bovine pituitary extract (BPE: 40 ug/mL) • Primary antibody, Mouse IgG anti-E-cadherin (R&D Systems # MAB1838) • BSA [Sigma #A7030] • secondary antibody, FITC-conjugated Goat anti-mouse IgG (Fab2) fragment (Sigma-Aldrich # F-2653) • Paraformaldehyde (10%)) • Triton X-100 (Sigma # T-9284) • PBS (Fisher Scientific #BP399-1) • D-PBS (Invitrogen #14190-144) • Polypropylene tips (Axygen, Inc. 0.5-10 uL, cat # T-300-L-R; 1-200 uL, Cat # T-200-L-R; 1-1000 uL, Cat # T-1000-C-L-R) • 50 mL polypropylene culture tubes (Fisher Scientific, cat #06-443-18) • 24-well Coster cell culture plates (Fisher Scientific #07-200-84)
Reagents & Test Samples: • Positive control: BMP-7, assayed at concentrations 0.1 and 1 ug/mL • Test compounds (peptides): each tested at final concentrations 100 uM and 200 uM.
Assay Procedure for Cell Culture Assay: • Run assay in 24-well culture plates. • Seed HK-2 cells at a density between 25,000 and 30,000 cells per well in lmL K-SFM medium with supplements added (growth medium) • Incubate HK-2 cells for 24 hours at 37° C., and let cells attach the plate • Next Day afternoon, change the medium with K-SFM medium with no added supplements (serum free medium) in all wells except the first two control wells. • Continue incubating HK-2 cells overnight at 37° C. • Next Day, aspirate the medium from all wells. Incubate the cells in growth medium (first two control wells) or expose them to test compounds for 2 hours at 37° C. Final concentrations of each Test compound are 100 and 200 uM. BMP-7 serves as a positive control in the assay. • After incubation, add D-glucose to all wells except first two control wells. Final concentrations of D-Glucose are 50 and 100 mM. • Incubate HK-2 cells for 60 hours at 37° C. • Aspirate the medium from all wells. To the wells, add pre-warmed growth medium or serum free medium containing D-glucose alone or D-glucose and test compound or D-glucose and BMP-7. Final concentrations of D-Glucose and Test compound are the same as above. • Continue incubating HK-2 cells for 24 hours at 37° C. […]

COL4A3−/− mice = test: COL4A3 deficient mice (Alport syndrome model); format: in vivo
From the text: FIG. 64a-FIG. 64N […] inhibits Renal Fibrosis in the COL4A3 Deficient mice. FIG. 64A-FIG. 64C. Representative histological PAS staining of glomeruli from 16 weeks old wild type (FIG. 64A); 16 weeks old COL4A3−/− (FIG. 64B), and 16 weeks old COL4A3−/− mice treated with THR-123 (FIG. 64C), original magnification ×400. D-F. Representative histological Masson's trichrome staining of kidneys from 16 weeks old wild type (FIG. 64D); 16 weeks old COL4A3−/− (FIG. 64E), and 16 weeks old COL4A3−/− mice treated with THR-123 (FIG. 64F), original magnification ×100. FIG. 64G-FIG. 64I. Morphometric analyses from 16 weeks old wild type (n=5), COL4A3−/− (n=5) and COL4A3−/− mice treated with THR-123 (n=5) assessing percent normal glomeruli (FIG. 64G), tubular damage index (FIG. 64H), relative interstitial volume (FIG. 64I). FIG. 64J. Blood urea nitrogen measurement for […] wild type (n=5), 16 weeks old COL4A3−/− (n=5) and COL4A3−/− mice treated with THR-123 (n=5). FIG. 64K-FIG. 64M. FSP1/E-cadherin immunolabeling of kidney. Representative results are shown. FIG. 64N. Percent of E-cadherin/FSP1double positive tubule, 500 tubules per slide, 5 slides per experimental group.
Eight weeks old COL4A3^−/− mice are treated either THR-123 (p.o. 5 mg/Kg/day) or vehicle. COL4A3^−/− mice are sacrificed at 16 weeks of age.
For morphometric analyses of percent normal glomeruli, 100 glomeruli were counted per slide from random fields of view, and five slides were counted per experimental group. The number of normal glomeruli was expressed as a percentage of the total number of glomeruli counted.

## (H)-CYFDDSSNVLCKKYRS-(OH) (H-CYFDDSSNVLCKKYRS-OH; disulfide 1-11; SMILES CC(C)C[C@@H]1NC(=O)[C@H](C(C)C)NC(=O)[C@H](CC(N)=O)NC(=O)[C@H](CO)NC(=O)[C@H](CO)NC(=O)[C@H](CC(=O)O)NC(=O)[C@H](CC(=O)O)NC(=O)[C@H](Cc2ccccc2)NC(=O)[C@H](Cc2ccc(O)cc2)NC(=O)[C@@H](N)CSSC[C@@H](C(=O)N[C@@H](CCCCN)C(=O)N[C@@H](CCCCN)C(=O)N[C@@H](Cc2ccc(O)cc2)C(=O)N[C@@H](CCCNC(=N)N)C(=O)N[C@@H](CO)C(=O)O)NC1=O) [SEQ ID NO: 1]
[1]
  prevention of D-glucose induced loss of epithelial phenotype (E-cadherin expression): effectively prevents
COL4A3−/− mice; THR-123 p.o. 5 mg/Kg/day
  blood urea nitrogen level: significantly improved blood urea nitrogen level
  tubular atrophy and interstitial fibrosis: significantly inhibited tubular atrophy and interstitial fibrosis
COL4A3−/− mice; THR-123 p.o. 5 mg/Kg/day, 8 to 16 weeks of age
  glomerular abnormalities: did not alter glomerular abnormalities
COL4A3−/− mice; mouse, in vivo
  acquisition of an EMT program: inhibited such acquisition of an EMT program
  macrophage infiltration: inhibited macrophage infiltration
  phospho-smad1/5 accumulation: increased accumulation of phospho-smad1/5
